Measured values from ChEMBL document CHEMBL1125452, “Rationally designed "dipeptoid" analogues of CCK. A Free-Wilson/Fujita-Ban analysis of some alpha-methyltryptophan derivatives as CCK-B antagonists” (J Med Chem, 1992).

Target: T1, Gastrin/cholecystokinin type B receptor (Mus musculus, UniProt P56481)
T1 sequence (P56481 whole entry): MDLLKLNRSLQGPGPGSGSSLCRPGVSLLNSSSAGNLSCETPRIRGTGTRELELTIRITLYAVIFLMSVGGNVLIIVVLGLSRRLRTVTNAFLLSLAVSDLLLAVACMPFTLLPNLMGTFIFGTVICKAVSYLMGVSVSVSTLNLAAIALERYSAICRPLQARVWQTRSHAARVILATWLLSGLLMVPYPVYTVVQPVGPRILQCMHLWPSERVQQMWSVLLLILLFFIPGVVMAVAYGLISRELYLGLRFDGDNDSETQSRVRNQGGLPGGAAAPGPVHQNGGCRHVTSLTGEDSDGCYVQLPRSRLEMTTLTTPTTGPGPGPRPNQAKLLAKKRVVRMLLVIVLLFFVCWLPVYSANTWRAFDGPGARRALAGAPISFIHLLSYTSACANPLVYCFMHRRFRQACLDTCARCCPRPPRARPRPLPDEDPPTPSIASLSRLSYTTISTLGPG
Test: Cholecystokinin type B receptor binding assay performed on homogenized cerebral cortex from male mouse
Assay type: tissue-based

SMILES	Ki [nM]
C[C@](Cc1c[nH]c2ccccc12)(NC(=O)OC1C2CC3CC(C2)CC1C3)C(=O)N[C@H](CO)Cc1ccccc1 (some centres not stated)	6.03
C[C@@](Cc1c[nH]c2ccccc12)(NC(=O)OC1C2CC3CC(C2)CC1C3)C(=O)N[C@H](CNC(=O)CCC(=O)O)Cc1ccccc1 (some centres not stated)	166
O=C(O)CCC(=O)NC(CNC(=O)[C@@H](Cc1c[nH]c2ccccc12)NC(=O)OC1C2CC3CC(C2)CC1C3)c1ccccc1 (some centres not stated)	355
O=C(O)CCC(=O)N[C@@H](CNC(=O)[C@H](Cc1c[nH]c2ccccc12)NC(=O)OC1C2CC3CC(C2)CC1C3)c1ccccc1 (some centres not stated)	977
CC1(C)[C@H]2CC[C@@]1(C)[C@@H](OC(=O)N[C@](C)(Cc1c[nH]c3ccccc13)C(=O)NC[C@H](NC(=O)CCC(=O)O)c1ccccc1)C2	2.04
O=C(O)C[C@@H](Cc1ccccc1)NC(=O)[C@H](Cc1c[nH]c2ccccc12)NC(=O)OC1C2CC3CC(C2)CC1C3 (some centres not stated)	93.3
CC1(C)C2CCC1(C)[C@@H](OC(=O)N[C@@H](Cc1c[nH]c3ccccc13)C(=O)NC[C@H](NC(=O)CCC(=O)O)c1ccccc1)C2 (some centres not stated)	398
C[C@@H]1CCCC[C@H]1OC(=O)NC(C)(Cc1c[nH]c2ccccc12)C(=O)NCCc1ccccc1 (some centres not stated)	135
C[C@@H]1CCCC[C@H]1OC(=O)N[C@](C)(Cc1c[nH]c2ccccc12)C(=O)N[C@H](CNC(=O)/C=C/C(=O)O)Cc1ccccc1	1.15
O=C(O)C[C@@H](Cc1ccccc1)NC(=O)[C@@H](Cc1c[nH]c2ccccc12)NC(=O)OC1C2CC3CC(C2)CC1C3 (some centres not stated)	138
CC1(C)C2CCC1(C)[C@@H](OC(=O)N[C@H](Cc1c[nH]c3ccccc13)C(=O)NC[C@H](NC(=O)/C=C/C(=O)O)c1ccccc1)C2 (some centres not stated)	81.3
CC(Cc1c[nH]c2ccccc12)(NC(=O)O[C@H]1CC2CCC1(C)C2(C)C)C(=O)NCCc1ccccc1 (some centres not stated)	126
C[C@](Cc1c[nH]c2ccccc12)(NC(=O)OC12CC3CC(CC(C3)C1)C2)C(=O)N[C@H](CO)Cc1ccccc1	20.4
C[C@@H]1CCCC[C@H]1OC(=O)N[C@](C)(Cc1c[nH]c2ccccc12)C(=O)NC[C@H](NC(=O)CCC(=O)O)c1ccccc1	3.72
CC1(C)C2CCC1(C)C(OC(=O)N[C@](C)(Cc1c[nH]c3ccccc13)C(=O)N[C@H](CO)Cc1ccccc1)C2 (some centres not stated)	15.5
CC1(C)C2CCC1(C)[C@@H](OC(=O)N[C@H](Cc1c[nH]c3ccccc13)C(=O)NC[C@H](NC(=O)CCC(=O)O)c1ccccc1)C2 (some centres not stated)	302
C[C@@H]1CCCC[C@H]1OC(=O)N[C@](C)(Cc1c[nH]c2ccccc12)C(=O)NC[C@H](NC(=O)/C=C/C(=O)O)c1ccccc1	3.89
C[C@](Cc1c[nH]c2ccccc12)(NC(=O)OC1C2CC3CC(C2)CC1C3)C(=O)NC[C@H](NC(=O)/C=C/C(=O)O)c1ccccc1 (some centres not stated)	0.513
CC1(C)C2CCC1(C)[C@@H](OC(=O)N[C@](C)(Cc1c[nH]c3ccccc13)C(=O)NC[C@H](NC(=O)/C=C/C(=O)O)c1ccccc1)C2 (some centres not stated)	2.19
C[C@](Cc1c[nH]c2ccccc12)(NC(=O)OC1C2CC3CC(C2)CC1C3)C(=O)N[C@H](CNC(=O)/C=C/C(=O)O)Cc1ccccc1 (some centres not stated)	0.708
C[C@@H]1CCCC[C@H]1OC(=O)N[C@](C)(Cc1c[nH]c2ccccc12)C(=O)N[C@H](CNC(=O)CCC(=O)O)Cc1ccccc1	12.3
C[C@](Cc1c[nH]c2ccccc12)(NC(=O)OC1C2CC3CC(C2)CC1C3)C(=O)N[C@H](CNC(=O)CCC(=O)O)Cc1ccccc1 (some centres not stated)	3.98
CC(Cc1c[nH]c2ccccc12)(NC(=O)OC12CC3CC(CC(C3)C1)C2)C(=O)NCCc1ccccc1 (configuration not stated)	191
O=C(N[C@H](Cc1c[nH]c2ccccc12)C(=O)N[C@H](CO)Cc1ccccc1)OC1C2CC3CC(C2)CC1C3 (stereo in doubt; 9)	813
O=C(N[C@H](Cc1c[nH]c2ccccc12)C(=O)N[C@H](CO)Cc1ccccc1)OC1C2CC3CC(C2)CC1C3 (stereo in doubt; 10)	2090
C[C@@H]1CCCC[C@H]1OC(=O)N[C@](C)(Cc1c[nH]c2ccccc12)C(=O)N[C@H](CO)Cc1ccccc1 (stereo in doubt; 11)	15.1
C[C@@H]1CCCC[C@H]1OC(=O)N[C@](C)(Cc1c[nH]c2ccccc12)C(=O)N[C@H](CO)Cc1ccccc1 (stereo in doubt; 28)	8.91
